Results on 37 molecules are retold here after patent US10383880B2 (Reset Therapeutics, Inc., priority 2012, dated 2019).

Molecules are shown by their SMILES.

A word on the EC50: it is the midpoint of the concentration-response curve. A higher EC50 goes with a less potent agent.

The first assay relates to Per2-dLuc U2OS reporter cells. Put plainly: Per2 assay for evaluating the potency of test compounds (high-throughput circadian assay). The settings on record: Homo sapiens, U2OS, stable U2OS reporter cells harboring Per2-dLuc; luminescence monitored over 4-5 days at 35° C. The class given is cell-based. Put shortly: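 Compounds (0.5% DMSO final) were added right after serum-shock synchronization of Per2-dLuc U2OS reporter cells in minimal medium containing 1.0 mM beetle luciferin. Reporter luminescence was followed at 35 °C for 4–5 days to extract rhythm period, amplitude and phase, and EC50 values were obtained from these.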
Turning to `CS(=O)(=O)N(Cc1ccco1)CC(O)Cn1c2ccccc2c2cc(F)ccc21` (stereo not shown) [Compound 238, N-(3-(3-Fluoro-9H-carbazol-9-yl)-2-hydroxy-propyl)-N-(furan-2-yl-methyl)methane-sulfonanide], the EC50 amounted to 535 nM.

Molecule `CCN(CC(O)Cn1c2ccccc2c2ccccc21)S(C)(=O)=O` (stereo not shown) [Compound 45, N-(3-(9H-Carbazol-9-yl)-2-hydroxypropyl)-N-ethylmethanesulfonamide] displayed a half-maximal effective concentration (EC50) of 398 nM. `CCN(CC(O)Cn1c2cc(F)ccc2c2ccc(F)cc21)S(C)(=O)=O` (stereo not shown) [Compound 158, N-(3-(2,7-Difluoro-9H-carbazol-9-yl)-2-hydroxypropyl)-N-ethylmethanesulfonamide] yielded an EC50 of 811 nM. The same measure, in the same setting: then `O=S(=O)(CC1CCCCO1)N(Cc1ccco1)CC(O)Cn1c2ccccc2c2ccccc21` (stereo not shown) [Compound 18, N-(3-(9H-Carbazol-9-yl)-2-hydroxypropyl)-N-(furan-2-ylmethyl)-1-(tetrahydro-2H-pyran-2-yl)methanesulfonamide], with 3760 nM; and `O=S(=O)(N(Cc1ccco1)CC(O)Cn1c2ccccc2c2ccccc21)C(F)(F)F` (stereo not shown) [Compound 83, N-(3-(9H-Carbazol-9-yl)-2-hydroxypropyl)-1,1,1-trifluoro-N-(furan-2-ylmethyl)methanesulfonamide], with 413 nM. The same measure, in the same setting: then `CS(=O)(=O)N(CC(O)Cn1c2ccccc2c2ccccc21)c1ccccc1` (stereo not shown) [Compound 23, N-(3-(9H-Carbazol-9-yl)-2-hydroxypropyl)-N-phenylmethanesulfonamide], with 90 nM. `CN(CC(O)Cn1c2ccccc2c2ccccc21)S(C)(=O)=O` (stereo not shown) [Compound 32, N-(3-(9H-Carbazol-9-yl)-2-hydroxypropyl)-N-methylmethanesulfonamide] had a concentration giving a half-maximal response (EC50) of 100 nM. The EC50 values of the last two molecules are within 1.5-fold of each other.

Molecule `O=S(=O)(CC(F)F)N(Cc1ccco1)CC(O)Cn1c2ccccc2c2ccccc21` (stereo not shown) [Compound 8, N-(3-(9H-Carbazol-9-yl)-2-hydroxypropyl)-2,2-difluoro-N-(furan-2-ylmethyl)ethanesulfonamide] returned an EC50 of 6960 nM. As to `CN(CC(O)Cn1c2ccc(F)cc2c2cc(F)ccc21)S(C)(=O)=O` (stereo not shown) [Compound 89, N-(3-(3,6-Difluoro-9H-carbazol-9-yl)-2-hydroxypropyl)-N-methylmethanesulfonamide], the EC50 was 360 nM. Take `O=S1(=O)CCCCN1CC(O)Cn1c2ccc(F)cc2c2cc(F)ccc21` (stereo not shown) [Compound 86, N-(3-(3,6-Difluoro-9H-carbazol-9-yl)-2-hydroxypropyl)-1,2-thiazinane 1,1-dioxide]: the 50% effective concentration (EC50) was 46 nM. Compared with the last molecule, the EC50 is about 7.8-fold lower. In turn, `COC1CCCC(N(CC(O)Cn2c3ccc(F)cc3c3cc(F)ccc32)S(C)(=O)=O)C1` (stereo not shown) [Compound 198, N-(3-(3,6-Difluoro-9H-carbazol-9-yl)-2-hydroxypropyl)-N-(3-methoxycyclohexyl)methanesulfonamide] had an EC50 of 1230 nM. Same read-out and setting: then `CC1CCCN(CC(O)Cn2c3ccccc3c3ccccc32)S1(=O)=O` (stereo not shown) [Compound 111, N-(3-(9H-Carbazol-9-yl)-2-hydroxypropyl)-6-methyl-1,2-thiazinane-1,1-dioxide], with 84 nM.

`CN1CCCN(CC(C)(O)Cn2c3ccc(F)cc3c3cc(F)ccc32)S1(=O)=O` (stereo not shown) [Compound 170, 2-(3-(3,6-Difluoro-9H-carbazol-9-yl)-2-hydroxy-2-methylpropyl)-6-methyl-1,2,6-thiadiazinane-1,1-dioxide] gave a half-maximal effective concentration (EC50) of 1260 nM. `O=S1(=O)CCCCN1CC(O)Cn1c2cc(F)ccc2c2ccc(F)cc21` (stereo not shown) [Compound 91, N-(3-(2,7-Difluoro-9H-carbazol-9-yl)-2-hydroxypropyl)-1,2-thiazinane 1,1-dioxide] registered an EC50 of 150 nM.

Consider `CC1CCN(CC(C)(O)Cn2c3ccc(F)cc3c3cc(F)ccc32)S1(=O)=O` (stereo not shown) [Compound 179, 2-(3-(3,6-Difluoro-9H-carbazol-9-yl)-2-hydroxy-2-methylpropyl)-5-methylisothiazolidine-1,1-dioxide], for which the response was half-maximal at 1200 nM (EC50).

As to `CS(=O)(=O)N(CC(O)Cn1c2ccc(F)cc2c2cc(F)ccc21)c1ccccc1` (stereo not shown) [Compound 199, N-(3-(3,6-Difluoro-9H-carbazol-9-yl)-2-hydroxypropyl)-N-phenylmethanesulfonamide], a half-maximal effect (EC50) was put at 544 nM. Against the preceding molecule, the EC50 is about 2.2-fold lower.

As to `CC(O)(CN(C1(C)CCCC1)S(C)(=O)=O)Cn1c2ccc(F)cc2c2cc(F)ccc21` (stereo not shown) [Compound 197, N-(3-(3,6-Difluoro-9H-carbazol-9-yl)-2-hydroxy-2-methylpropyl)-N-(1-methylcyclopentyl)methanesulfonamide], the EC50 stood at 873 nM. This EC50 lies about 1.6-fold higher than the previous one. With `CC1CCCCC1N(CC(O)Cn1c2ccccc2c2ccccc21)S(C)(=O)=O` (single isomer, unassigned) [Compound 127, N-(3-(9H-Carbazol-9-yl)-2-hydroxypropyl)-N-(2-methylcyclohexyl)methanesulfonamide], the concentration for a half-maximal effect (EC50) was 4010 nM. Still for that read-out and setting: under `O=S1(=O)Cc2ccccc2N1CC(O)Cn1c2ccccc2c2ccccc21` (stereo not shown) [Compound 36, N-(3-(9H-Carbazol-9-yl)-2-hydroxypropyl)-1,3-dihydrobenzo[c]isothiazole 2,2-dioxide] stands 539 nM; under `CC(O)(Cn1c2ccc(F)cc2c2cc(F)ccc21)C(C)(C)N1CCCS1(=O)=O` (stereo not shown) [Compound 245, 2-(4-(3,6-Difluoro-9H-carbazol-9-yl)-3-hydroxy-2,3-dimethylbutan-2-yl)-isothiazolidine-1,1-dioxide], 1150 nM. The molecule `CS(=O)(=O)N(CC(O)Cn1c2ccc(F)cc2c2cc(F)ccc21)c1ccc(-c2c[nH]cn2)cc1` (stereo not shown) [Compound 204, N-(4-(1H-Imidazol-4-yl)phenyl)-N-(3-(3,6-difluoro-9H-carbazol-9-yl)-2-hydroxypropyl)methanesulfonamide] came in with an EC50 of 2550 nM.

Consider `CCOc1ccc(N(CC(O)Cn2c3ccc(F)cc3c3cc(F)ccc32)S(C)(=O)=O)cc1` (stereo not shown) [Compound 202, N-(3-(3,6-Difluoro-9H-carbazol-9-yl)-2-hydroxypropyl)-N-(4-ethoxyphenyl)methanesulfonamide], for which the EC50 was 2100 nM. Regarding `O=S(=O)(C1CCOC1)N(Cc1ccco1)CC(O)Cn1c2ccccc2c2ccccc21` (stereo not shown) [Compound 85, N-(3-(9H-Carbazol-9-yl)-2-hydroxypropyl)-N-(furan-2-ylmethyl)tetrahydrofuran-3-sulfonamide], it took 510 nM to reach a half-maximal effect (EC50). `CC(C)N(CC(O)Cn1c2cc(F)ccc2c2ccc(F)cc21)S(C)(=O)=O` (stereo not shown) [Compound 159, N-(3-(2,7-Difluoro-9H-carbazol-9-yl)-2-hydroxypropyl)-N-isopropylmethanesulfonamide] registered an EC50 of 505 nM.

On to `COC1CCS(=O)(=O)N(CC(O)Cn2c3ccc(F)cc3c3cc(F)ccc32)C1` (stereo not shown) [Compound 155, N-(3-(3,6-Difluoro-9H-carbazol-9-yl)-2-hydroxypropyl)-4-methoxy-1,2-thiazinane-1,1-dioxide], for which the half-maximal effective concentration (EC50) stood at 324 nM.

In the case of `CCN1CCCN(CC(C)(O)Cn2c3ccc(F)cc3c3cc(F)ccc32)S1(=O)=O` (stereo not shown) [Compound 227, 2-(3-(3,6-Difluoro-9H-carbazol-9-yl)-2-hydroxy-2-methylpropyl)-6-ethyl-1,2,6-thiadiazinane-1,1-dioxide], the midpoint of the response, the EC50, lay at 5290 nM. Same read-out and setting: under `CCN1CCN(CC(O)Cn2c3ccc(F)cc3c3cc(F)ccc32)S1(=O)=O` (stereo not shown) [Compound 216] stands 150 nM; under `COCCS(=O)(=O)N(Cc1ccco1)CC(O)Cn1c2ccccc2c2ccccc21` (stereo not shown) [Compound 11, N-(3-(9H-Carbazol-9-yl)-2-hydroxypropyl)-N-(furan-2-ylmethyl)-2-methoxyethanesulfonamide], 1790 nM; under `CC(C)N(CC(O)Cn1c2ccc(F)cc2c2ccc(F)cc21)S(C)(=O)=O` (stereo not shown) [Compound 165, N-(3-(2,6-Difluoro-9H-carbazol-9-yl)-2-hydroxypropyl)-N-isopropylmethanesulfonamide], 95 nM.

On to `O=S1(=O)N(CC(O)Cn2c3ccc(F)cc3c3cc(F)ccc32)CCN1C1CCCCC1` (stereo not shown) [Compound 233], for which the concentration giving a half-maximal response (EC50) was 418 nM. Consider `CC(=O)N1CCC(N(CC(O)Cn2c3ccccc3c3ccccc32)S(C)(=O)=O)CC1` (stereo not shown) [Compound 59, N-(3-(9H-Carbazol-9-yl)-2-hydroxypropyl)-N-(1-acetylpiperidin-4-yl)methanesulfonamide], for which the EC50 worked out at 9580 nM. `CCCN(CC(C)(O)Cn1c2ccc(F)cc2c2cc(F)ccc21)S(C)(=O)=O` (stereo not shown) [Compound 151, N-(3-(3,6-Difluoro-9H-carbazol-9-yl)-2-hydroxy-2-methylpropyl)-N-propylmethanesulfonamide] had a half-maximal effective concentration (EC50) of 2260 nM.

Regarding `O=S1(=O)N(CC(O)Cn2c3ccc(F)cc3c3cc(F)ccc32)CCCN1C1CCCCC1` (stereo not shown) [Compound 222, 2-(3-(3,6-Difluoro-9H-carbazol-9-yl)-2-hydroxypropyl)-6-cyclohexyl-1,2,6-thiadiazinane-1,1-dioxide], the 50% effective concentration (EC50) is 7120 nM. Same read-out and setting: then `Cc1ccc(N(CC(O)Cn2c3ccccc3c3ccccc32)S(C)(=O)=O)cc1` (stereo not shown) [Compound 25, N-(3-(9H-Carbazol-9-yl)-2-hydroxypropyl)-N-p-tolylmethanesulfonamide], with 170 nM. `CS(=O)(=O)N(Cc1ccccc1)CC(O)Cn1c2ccccc2c2ccccc21` (stereo not shown) [Compound 44, N-(3-(9H-Carbazol-9-yl)-2-hydroxypropyl)-N-benzylmethanesulfonamide] returned an EC50 of 8270 nM.

`O=S1(=O)C(F)CCCN1CC(O)Cn1c2ccccc2c2ccccc21` (stereo not shown) [Compound 121, 2-(3-(9H-Carbazol-9-yl)-2-hydroxypropyl)-6-fluoro-1,2-thiazinane-1,1-dioxide] had an EC50 of 51 nM.

The same assay, now with this note: stable U2OS reporter cells harboring Per2-dLuc; luminescence monitored over 4-5 days at 35° C.
Take `CS(=O)(=O)N(CC(O)Cn1c2ccccc2c2ccccc21)C1CC2CCC1O2` (single isomer, unassigned) [Compound 140B, N-(3-(9H-Carbazol-9-yl)-2-hydroxypropyl)-N-(7-oxabicyclo[2.2.1]heptan-2-yl)methanesulfonamide]: the EC50 worked out at 823 nM.
